Reference: patent US11806386B2, “Type I diabetes therapy” (St. Vincent's Institute of Medical Research, priority 2017, dated 2023)
pIC50: −log10 of the molar value.

Legend:
[1] = system: IGRP-specific CD8+ T cells
Method: IGRP was expressed in TII mice at 10-weeks of age. NOD mice were used as controls without antigen expression. At 13-weeks of age, mice were treated for 2 weeks with vehicle (Veh) or JAK inhibitor (JAKi). Mice were harvested for analysis immediately after treatment (2 week), or after a further 2 or 4 weeks with antigen alone (4 week and 6 week). The number of IGRP-specific CD8+ T cells in the peripheral lymphoid organs (PLO, top panel) or islets (bottom panel) is shown for each time point.
TII mice received doxycycline until 10-weeks of age. After doxycycline was removed, IGRP was expressed in antigen presenting cells of mice carrying both tetO-IGRP and IEα-tTA transgenes. Mice were treated with 10 mg/kg JAK inhibitor or vehicle between 13-15 w of age for 2 weeks. Mice were analysed at 2 weeks (harvest immediately after stopping JAK inhibitor), 4 weeks (harvest two weeks after stopping JAK inhibitor), and 6 weeks (harvest four weeks after stopping JAK inhibitor). Data is from 1-3 experiments per time point with 3-4 mice per group/experiment.
Cells were washed then stained with anti-PE MicroBeads (Miltenyi Biotec) and magnetically separated using an AutoMACSpro (Miltenyi Biotec).
Fluorescent-labelled monoclonal antibodies specific for CD4 (GK1.5) bound to APC-Cy7, CD8 (53-6.7) bound to FITC, CD3 (500A2) bound to AmCyan, CD44 (IM7) bound to Alexa Fluor 700, and CD11 b (M1/70), CD11c (N418) and Ly6G (RB6-8C5) bound to Pacific Blue were used to stain magnetically sorted cells. Analysis was performed using FACSFortessa (BD Bioscience) and FlowJo software (TreeStar). Single cells were gated on forward and side scatter, and dead cells excluded using propidium iodide. CD11 b^− CD11c^− Ly6G^− CD3^+ CD8^+ cells were gated as the target population for analysis of IGRP tetramer-positive T cells.

[2] = system: diabetes in TIP2 mice; details: combination therapy: TIP2 mice expressing proinsulin plus 10 mg/kg twice daily oral from 12 to 14 weeks of age (cohort 3); p<0.005
Method: Mice were monitored for 30 weeks (210 days). […] Diabetes incidence curves compared using Log-Rank (Mantel-Cox) test.
Removal of doxycycline allowed the maximal recovery of proinsulin expression by 12 weeks (84 days) of age.
Mice receiving JAK inhibitor were treated with 10 mg/kg dose twice daily by oral gavage from 12 to 14 weeks (day 84-98) of age. Control mice received the same volume of vehicle by oral gavage.
Female mice were monitored for diabetes weekly by measurement of urinary glucose levels using Diastix (Bayer). Those suspected of hyperglycaemia had further blood glucose level testing on two consecutive days using ACCU-CHEK Advantage II strips (Roche). Mice with two consecutive blood glucose measurements of greater than or equal to 15 mM were considered diabetic.
TIP2 mice were administered doxycycline until 8 weeks of age to suppress proinsulin expression. At 12 weeks of age TIP2 mice received JAK inhibitor (combination therapy; cohort 3; FIG. 4A) or vehicle (proinsulin monotherapy; cohort 2).

[3] = system: other JAK-family kinases; details: cited from earlier work
[4] = target: JAK2 (Homo sapiens, UniProt O60674); details: cited from earlier work
[5] = system: JAK/STAT signalling (p-STAT1); experiment: IFNγ-mediated STAT1 phosphorylation in peripheral blood stimulated ex vivo after oral dosing (Western blot); set-up: species or system NOD mice; details: 80 mg/kg daily oral gavage from 2 to 4 weeks of age; blood taken 2 h after last dose, 100 U/mL IFNγ ex vivo; p=0.01
Method: (A) NOD mice received 80 mg/kg ruxolitinib (n=5) or vehicle (n=5) daily by oral gavage from 2 to 4 weeks of age. Two hours after last dose of ruxolitinib or vehicle, peripheral blood was stimulated with 100 U/mL IFNγ ex vivo and analysed by Western blot for IFNγ-mediated phosphorylation of STAT1 and housekeeping protein β-actin. The intensity of p-STAT1 as a ratio of β-actin in arbitrary units (mean±SEM) was used to measure p-STAT1. p=0.01 using two-tailed unpaired t test.
The JAK1/JAK2 inhibitor ruxolitinib was purchased from Chemietek (USA). […] Mice receiving JAK inhibitor were treated with 80 mg/kg ruxolitinib daily by oral gavage from 2 to 4 weeks of age. Control mice received the same volume of vehicle by oral gavage.
Peripheral whole blood was stimulated with 100 U/mL IFN-γ (Biolegend) for 30 min at 37° C. […] Samples were further treated with radioimmunoprecipitation assay buffer (R0278, Sigma), sample buffer (10% SDS, 30% glycerol, 0.02% bromophenol blue in 250 mM Tris-HCl, pH 6.8) and β-mercaptoethanol. Near-infrared fluorescent western blotting was performed using anti-p-STAT1 antibody (BD Biosciences), normalized to β-actin (Santa Cruz Biotechnology) and scanned on an Odyssey CLx imager.
At 4 weeks of age, two hours after the last oral gavage of 80 mg/kg ruxolitinib or vehicle, peripheral blood and islets were harvested from NOD mice.

Sequence of JAK2 (O60674 whole entry, species assumed): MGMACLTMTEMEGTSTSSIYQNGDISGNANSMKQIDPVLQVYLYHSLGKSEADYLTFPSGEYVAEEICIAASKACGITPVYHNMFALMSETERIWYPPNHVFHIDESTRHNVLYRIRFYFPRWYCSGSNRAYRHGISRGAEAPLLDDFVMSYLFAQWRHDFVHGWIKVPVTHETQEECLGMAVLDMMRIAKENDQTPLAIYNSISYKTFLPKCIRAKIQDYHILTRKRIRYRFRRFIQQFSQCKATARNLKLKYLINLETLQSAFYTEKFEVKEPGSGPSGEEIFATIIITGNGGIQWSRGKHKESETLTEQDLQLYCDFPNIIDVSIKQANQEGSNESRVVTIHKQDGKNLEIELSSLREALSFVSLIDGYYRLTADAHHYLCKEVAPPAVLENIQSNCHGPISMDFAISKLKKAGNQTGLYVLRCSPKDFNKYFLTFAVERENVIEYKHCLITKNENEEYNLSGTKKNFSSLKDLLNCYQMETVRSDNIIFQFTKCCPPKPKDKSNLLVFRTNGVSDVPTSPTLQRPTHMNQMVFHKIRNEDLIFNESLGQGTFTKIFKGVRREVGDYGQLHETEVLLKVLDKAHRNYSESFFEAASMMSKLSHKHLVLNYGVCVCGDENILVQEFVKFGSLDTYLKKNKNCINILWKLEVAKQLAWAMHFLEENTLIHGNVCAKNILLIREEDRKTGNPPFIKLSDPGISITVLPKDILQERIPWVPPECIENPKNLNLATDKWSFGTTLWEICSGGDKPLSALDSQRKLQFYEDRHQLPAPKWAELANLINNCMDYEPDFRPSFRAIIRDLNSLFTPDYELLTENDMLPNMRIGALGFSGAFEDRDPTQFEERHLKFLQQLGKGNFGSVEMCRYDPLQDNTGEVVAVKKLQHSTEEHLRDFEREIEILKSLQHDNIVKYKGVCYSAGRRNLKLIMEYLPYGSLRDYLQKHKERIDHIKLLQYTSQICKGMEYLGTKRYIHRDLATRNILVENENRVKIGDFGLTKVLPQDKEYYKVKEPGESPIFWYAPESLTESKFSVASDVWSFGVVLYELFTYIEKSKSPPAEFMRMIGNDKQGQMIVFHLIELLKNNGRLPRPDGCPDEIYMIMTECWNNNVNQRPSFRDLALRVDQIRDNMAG

CC(C)(C)c1nc2c3cc[nH]c(=O)c3c3cc(F)ccc3c2[nH]1 [JAK inhibitor]
IGRP specific memory T cells 2 weeks after cessation of treatment ([1]; NOD mice without antigen expression (NOD-JAKi)): returned
IGRP specific memory T cells in PLO and in islets immediately after 2 weeks of treatment ([1]; TII mice expressing IGRP from 10 weeks, 10 mg/kg for 2 weeks, TII-Veh vs TII-JAKi): decrease
IGRP specific memory T cell numbers after cessation of treatment ([1]; TII mice with antigen expression (TII-JAKi), islets at 6 weeks p=0.02, PLO p=0.054): remained low
protection from diabetes at 30 weeks of age (210 days) [2]: significantly protected from diabetes

C[C@H](Nc1cc(-c2cnn(C)c2)cc(Nc2cnccn2)n1)c1ccc(F)cc1 [NS018]
selectivity for JAK2 over other JAK-family kinases [3]: 30-50 fold
pIC50 [4]: > 9.00

N#CC[C@H](C1CCCC1)n1cc(-c2ncnc3[nH]ccc23)cn1 [ruxolitinib]
reduction of STAT1 phosphorylation compared to vehicle-treated NOD mice [5]: greater than 50%
